Assay [1] concerns the target T1, KIF5B-RET mutant form V804M in HEK293 cells (Homo sapiens, UniProt P07949, V804M).
T1 construct: expressed in transfected cells; host or cells: HEK293; the other entry of the earlier key: KIF5B (P33176, Kinesin-1 heavy chain)
T1 sequence (P07949 713-1063 V804M limits assumed): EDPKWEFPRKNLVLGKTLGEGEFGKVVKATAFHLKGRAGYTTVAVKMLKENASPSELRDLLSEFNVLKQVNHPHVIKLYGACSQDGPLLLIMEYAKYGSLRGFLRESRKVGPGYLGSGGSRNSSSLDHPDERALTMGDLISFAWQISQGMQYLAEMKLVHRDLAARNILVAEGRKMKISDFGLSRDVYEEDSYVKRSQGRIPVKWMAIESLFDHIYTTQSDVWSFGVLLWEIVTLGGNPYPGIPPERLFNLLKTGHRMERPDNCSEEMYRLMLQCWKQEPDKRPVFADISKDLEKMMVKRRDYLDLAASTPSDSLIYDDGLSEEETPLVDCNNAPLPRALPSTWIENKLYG
The assay is described as follows: RET cell assay (In-Cell Western, phospho-RET Y1062), V804M. The assay is classed as cell-based. Particulars: HEK293, doxycycline-induced KIF5B-RET V804M, 1 hr compound treatment; read-out: EC50, inhibition of intracellular autophosphorylation of RET at tyrosine 1062, V804M cells. As to the method: (§1) Compounds of formulas (I), (II), and (III) are screened for their ability to inhibit the intracellular autophosphorylation of RET at tyrosine 1062 as detected by In-Cell Western. HEK293 cells containing a doxycycline-inducible plasmid for inducible expression of KIF5B-RET WT and RET mutant forms V804M and G810S are seeded at 25,000 cells/well into black poly-D-lysine pre-coated 384-well plates (Corning, Catalog No. 356697). Expression of KIF5B-RET is induced with doxycycline at 1 μg/mL and cells are incubated at 37° C. overnight. Compounds are prepared in a threefold serial dilution in DMSO before further diluting 1:100 in media prior to the addition to the cells (0.1% final DMSO concentration). Compound treatment is performed for 1 hr at 37° C. followed by fixation of cells with 4% formaldehyde for 20 min at RT and cell permeabilisation with ice-cold MeOH for 10 min at RT. Cells are incubated with Intercept® blocking buffer (Li—COR, Catalogue No. 927-70010) for 1 hr at RT. Incubation with primary antibodies against human phospho-RET (Y1062) (R&D, Catalogue No. AF5009, 1/250 dilution) and human glyceraldehyde-3-phosphate dehydrogenase (clone 6C5, Merck, Catalog No. MAB374, 1/1000 dilution) are performed overnight at 4° C. Incubation with secondary antibodies IRDye® 800CW goat anti-rabbit IgG (Li—COR, Catalogue No. 926-32211, 1/1000 dilution) and IRDye® 680CW goat anti-mouse IgG (Li—COR, Catalogue No. 926-68070, 1/1000 dilution) are performed for 1 hr at RT. All antibody dilutions are done in Intercept® blocking buffer containing 0.05% Tween20. After washing cells with PBS-T (Cell Signaling technology, Catalogue No. 9809), the images are acquired on a Li—COR Odyssey LCx at 700 and 800 nm. Percent of DMSO control is calculated with 100% signal referring to control conditions containing no compound (0.4% DMSO only) and 0% signal represented by conditions containing control compound. The % of DMSO control values are fit to a 4 parameter logistic curve, and the determined EC50 value is defined as the estimated concentration of inhibitor at the inflexion point of the fitted curve.

Assay [2] concerns the target T2, KIF5B-RET mutant form G810S in HEK293 cells (Homo sapiens, UniProt P07949, G810S).
T2 construct: expressed in transfected cells; host or cells: HEK293; the other entry of the earlier key: KIF5B (P33176, Kinesin-1 heavy chain)
T2 sequence (P07949 713-1063 G810S limits assumed): T1 sequence (P07949 713-1063 V804M limits assumed) with M92V, G98S
Put plainly: RET cell assay (In-Cell Western, phospho-RET Y1062), G810S. The assay is classed as cell-based. Particulars: HEK293, doxycycline-induced KIF5B-RET G810S, 1 hr compound treatment; read-out: EC50, inhibition of intracellular autophosphorylation of RET at tyrosine 1062, G810S cells. On the procedure:
as §1

Molecules are shown by their SMILES. Residue numbers refer to the chain shown, from its start. Some results are limits rather than exact numbers.

The results in this text go back to patent US11613533B2, “Compounds useful for inhibiting RET kinase” (Eli Lilly and Company, priority 2020, dated 2023).

For orientation: EC50 means the concentration giving half of the maximal effect. Turning to `CC(C(=O)Nc1cc(C(C)(C)C(F)(F)F)no1)c1ccc(-c2nn(C(C)C)c(N)c2C(N)=O)cc1` (single isomer, unassigned; isomer 1) [Example 17, 5-Amino-1-isopropyl-3-[4-(1-[[3-(1,1,1-trifluoro-2-methylpropan-2-yl)-1,2-oxazol-5-yl]carbamoyl]ethyl)phenyl]pyrazole-4-carboxamide, Isomer 1], the half-maximal effective concentration (EC50) in assay [1] and in assay [2] was less than 100 nM in each case.

With `CC(C(=O)Nc1cc(C2(C)CC2)no1)c1ccc(-c2nn(C(C)C)c(N)c2C(N)=O)cc1` (single isomer, unassigned; isomer 1) [Example 35, 5-Amino-1-isopropyl-3-[4-(1-[[3-(1-methylcyclopropyl)-1,2-oxazol-5-yl]carbamoyl]ethyl)phenyl]pyrazole-4-carboxamide, Isomer 1], the EC50 in assay [1] and in assay [2] was less than 100 nM in each case.

For the compound `CC(C(=O)Nc1cc(CC(C)(C)C)no1)c1ccc(-c2nn(C(C)C)c(N)c2C(N)=O)cc1` (single isomer, unassigned; isomer 1) [Example 1, 5-Amino-3-[4-(1-[[3-(2,2-dimethylpropyl)-1,2-oxazol-5-yl]carbamoyl]ethyl)phenyl]-1-isopropylpyrazole-4-carboxamide, Isomer 1], the EC50 in assay [1] and in assay [2] was less than 100 nM each time.

For `CCC(C)(C)c1cc(NC(=O)C(C)c2ccc(-c3nn(C(C)C)c(N)c3C(N)=O)cn2)on1` (single isomer, unassigned; isomer 2) [Example 84, 5-Amino-1-isopropyl-3-[6-[2-[[3-(1,1-dimethylpropyl)isoxazol-5-yl]amino]-1-methyl-2-oxo-ethyl]-3-pyridyl]pyrazole-4-carboxamide, Isomer 2], the EC50 in assay [1] and in assay [2] was less than 100 nM each time.

On to `CC(C(=O)Nc1cc(-c2ccc(Cl)cc2Cl)no1)c1ccc(-c2nn(C(C)C)c(N)c2C(N)=O)cc1` (single isomer, unassigned; isomer 1) [Example 45, 5-Amino-3-[4-(1-[[3-(2,4-dichlorophenyl)-1,2-oxazol-5-yl]carbamoyl]ethyl)phenyl]-1-isopropylpyrazole-4-carboxamide, Isomer 1], for which the EC50 in assay [1] and in assay [2] was less than 100 nM each time.

Take `CC(C(=O)Nc1cc(C2CC(C)(C)C2)no1)c1ccc(-c2nn(C(C)C)c(N)c2C(N)=O)cc1` (single isomer, unassigned; isomer 1) [Example 98, 5-Amino-3-[4-[2-[[3-(3,3-dimethylcyclobutyl)isoxazol-5-yl]amino]-1-methyl-2-oxo-ethyl]phenyl]-1-isopropyl-pyrazole-4-carboxamide, Isomer 1]: the concentration for a half-maximal effect (EC50) in assay [1] and in assay [2] was less than 100 nM each time.

As to `CCC(C)(C)c1cc(NC(=O)C(C)c2ccc(-c3nn(C(C)C)c(N)c3C(N)=O)cc2)on1` (single isomer, unassigned; isomer 1) [Example 15, 5-Amino-1-isopropyl-3-[4-(1-[[3-(2-methylbutan-2-yl)-1,2-oxazol-5-yl]carbamoyl]ethyl)phenyl]pyrazole-4-carboxamide, Isomer 1], the EC50 in assay [1] and in assay [2] was less than 100 nM in each case.

Consider `CCC(C)(C)c1cc(NC(=O)C(C)c2ccc(-c3nn(C(C)C)c(N)c3C(N)=O)nc2)no1` (single isomer, unassigned; isomer 2) [Example 66, 5-Amino-1-isopropyl-3-[5-(1-[[5-(2-methylbutan-2-yl)-1,2-oxazol-3-yl]carbamoyl]ethyl)pyridin-2-yl]pyrazole-4-carboxamide, Isomer 2], for which the EC50 in assay [1] and in assay [2] was less than 100 nM in each case.

For the compound `CC(C(=O)Nc1cc(C(C)(C)C(C)(F)F)on1)c1ccc(-c2nn(C(C)C)c(N)c2C(N)=O)cc1` (single isomer, unassigned; isomer 2) [Example 76, 5-Amino-3-[4-(1-[[5-(3,3-difluoro-2-methylbutan-2-yl)-1,2-oxazol-3-yl]carbamoyl]ethyl)phenyl]-1-isopropylpyrazole-4-carboxamide, Isomer 2], the concentration for a half-maximal effect (EC50) in assay [1] and in assay [2] was less than 100 nM each time.

In the case of `CC(C(=O)Nc1cc(C(C)(C)C(F)(F)F)on1)c1ccc(-c2nn(C(C)C)c(N)c2C(N)=O)cc1` (single isomer, unassigned; isomer 1) [Example 81, 5-Amino-1-isopropyl-3-[4-(1-[[5-(1,1,1-trifluoro-2-methylpropan-2-yl)-1,2-oxazol-3-yl]carbamoyl]ethyl)phenyl]pyrazole-4-carboxamide, Isomer 1], the EC50 in assay [1] and in assay [2] was less than 100 nM in each case.

Turning to `CC(C(=O)Nc1cc(-c2ccc(Cl)cc2Cl)no1)c1ccc(-c2nn(C(C)C)c(N)c2C(N)=O)cn1` (single isomer, unassigned; isomer 2) [Example 94, 5-Amino-1-isopropyl-3-[6-[2-[[3-(2,4-dichlorophenyl)isoxazol-5-yl]amino]-1-methyl-2-oxo-ethyl]-3-pyridyl]pyrazole-4-carboxamide, Isomer 2], the half-maximal effective concentration (EC50) in assay [1] and in assay [2] was less than 100 nM throughout.

Regarding `CCC(C)(C)c1cc(NC(=O)C(C)c2ccc(-c3nn(C(C)C)c(N)c3C(N)=O)cc2)no1` (single isomer, unassigned; isomer 2) [Example 52, 5-Amino-1-isopropyl-3-[4-(1-[[5-(2-methylbutan-2-yl)-1,2-oxazol-3-yl]carbamoyl]ethyl)phenyl]pyrazole-4-carboxamide, Isomer 2], the EC50 in assay [1] and in assay [2] was less than 100 nM in each case.

Consider `CC(C(=O)Nc1cc(C(C)(C)C)sn1)c1ccc(-c2nn(C(C)C)c(N)c2C(N)=O)cc1` (single isomer, unassigned; isomer 2) [Example 80, 5-Amino-3-(4-[1-[(5-tert-butyl-1,2-thiazol-3-yl)carbamoyl]ethyl]phenyl)-1-isopropylpyrazole-4-carboxamide, isomer 2], for which the EC50 in assay [1] and in assay [2] was less than 100 nM in each case.

In the case of `CC(C(=O)Nc1cc(C(C)(C)C(F)(F)F)no1)c1ccc(-c2nn(C(C)C)c(N)c2C(N)=O)cn1` (single isomer, unassigned; isomer 2) [Example 90, 5-Amino-1-isopropyl-3-[6-[1-methyl-2-oxo-2-[[3-(2,2,2-trifluoro-1,1-dimethyl-ethyl)isoxazol-5-yl]amino]ethyl]-3-pyridyl]pyrazole-4-carboxamide, Isomer 2], the EC50 in assay [1] and in assay [2] was less than 100 nM each time.

Regarding `CC(C(=O)Nc1cc(C(C)(C)C(C)(F)F)on1)c1ccc(-c2nn(C(C)C)c(N)c2C(N)=O)nc1` (single isomer, unassigned; isomer 2) [Example 70, 5-Amino-3-[5-(1-[[5-(3,3-difluoro-2-methylbutan-2-yl)-1,2-oxazol-3-yl]carbamoyl]ethyl)pyridin-2-yl]-1-isopropylpyrazole-4-carboxamide, Isomer 2], the EC50 in assay [1] and in assay [2] was less than 100 nM each time.
